Assay results as given in patent US10669242B2 (priority 2016, dated 2020).
pIC50: −log10 of the molar value. Where a name gives a salt, the structure may show the parent alone.

What follows are molecules tested against T1, recombinant glucosyltransferase domain of C. difficile Toxin B/TcdB (Clostridioides difficile, UniProt P18177) (assay: biochemical). Conditions: not given.
T1 construct: 6-His (C); purchased R&D Systems 6246-GT
T1 sequence (P18177 1-543): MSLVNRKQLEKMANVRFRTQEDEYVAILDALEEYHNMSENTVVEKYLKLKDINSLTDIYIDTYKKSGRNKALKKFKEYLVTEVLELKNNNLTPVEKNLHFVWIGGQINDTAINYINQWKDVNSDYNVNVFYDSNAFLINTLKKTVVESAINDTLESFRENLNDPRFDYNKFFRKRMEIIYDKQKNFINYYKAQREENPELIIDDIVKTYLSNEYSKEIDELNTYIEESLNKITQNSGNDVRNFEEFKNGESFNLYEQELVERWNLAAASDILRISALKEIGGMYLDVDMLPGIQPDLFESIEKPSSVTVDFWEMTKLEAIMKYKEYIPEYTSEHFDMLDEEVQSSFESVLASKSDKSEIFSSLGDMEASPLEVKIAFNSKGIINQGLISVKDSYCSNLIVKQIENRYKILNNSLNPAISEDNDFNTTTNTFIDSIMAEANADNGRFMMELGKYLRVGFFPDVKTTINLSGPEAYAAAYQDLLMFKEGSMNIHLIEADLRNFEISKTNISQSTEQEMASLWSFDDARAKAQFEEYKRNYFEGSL
For `O=C(Nc1ccc(F)cn1)c1ccc(CN2C(=O)c3ccc(Cl)cc3NC(=O)[C@H]2Cc2ccccn2)cc1F` [Example 6c, (R)-4-((8-chloro-2,5-dioxo-3-(pyridin-2-ylmethyl)-2,3-dihydro-1H-benzo[e][1,4]diazepin-4(5H)-yl)methyl)-2-fluoro-N-(5-fluoropyridin-2-yl)benzamide], the pIC50 was over 7.00. Molecule `COc1ccc(NC(=O)c2ccc(CN3C(=O)c4ccc(Cl)cc4NC(=O)[C@H]3C)cc2)nc1` [Example 4ba, (R)-4-((8-chloro-3-methyl-2,5-dioxo-2,3-dihydro-1H-benzo[e][1,4]diazepin-4(5H)-yl)methyl)-N-(5-methoxypyridin-2-yl)benzamide] has a pIC50 of 6.00 to 7.00. For `Cc1cnc(NC(=O)c2ccc(CN3C(=O)c4ccc(Cl)cc4NC(=O)[C@H]3Cc3ccccn3)s2)nc1` [Example 5s, (R)-5-((8-chloro-2,5-dioxo-3-(pyridin-2-ylmethyl)-2,3-dihydro-1H-benzo[e][1,4]diazepin-4(5H)-yl)methyl)-N-(5-methylpyrimidin-2-yl)thiophene-2-carboxamide], the pIC50 was 6.00 to 7.00. `Cc1ccc(NC(=O)c2ccc(CN3C(=O)c4ccc(Cl)cc4NC(=O)[C@H]3Cc3cccnc3)cc2)nc1` [Example 4n, (R)-4-((8-chloro-2,5-dioxo-3-(pyridin-3-ylmethyl)-2,3-dihydro-1H-benzo[e][1,4]diazepin-4(5H)-yl)methyl)-N-(5-methylpyridin-2-yl)benzamide] showed a pIC50 of over 7.00. Molecule `Cc1cccc(C(=O)c2ccc(CN3C(=O)c4ccc(Cl)cc4NC(=O)[C@H]3Cc3ccccn3)cc2)n1` [Example 11e, (R)-8-chloro-4-(4-(6-methylpicolimoyl)benzyl)-3-(pyridin-2-ylmethyl)-3,4-dihydro-1H-benzo[e][1,4]diazepine-2,5-dione] has a pIC50 of 6.00 to 7.00. `Cc1cnc2c(c1)CCN2C(=O)c1ccc(CN2C(=O)c3ccc(Cl)cc3NC(=O)[C@H]2Cc2ccccn2)cc1` [Example 4af, (R)-8-chloro-4-(4-(5-methyl-2,3-dihydro-1H-pyrrolo[2,3-b]pyridine-1-carbonyl)benzyl)-3-(pyridin-2-ylmethyl)-3,4-dihydro-1H-benzo[e][1,4]diazepine-2,5-dione] gave a pIC50 of over 7.00. Molecule `N#Cc1ccc2c(c1)NC(=O)[C@@H](Cc1cccnc1)N(Cc1ccc(C(=O)Nc3ccccn3)cc1)C2=O` [Example 14a, (R)-4-((8-Cyano-2,5-dioxo-3-(pyridin-3-ylmethyl)-2,3-dihydro-1H-benzo[e][1,4]diazepin-4(5H)-yl)methyl)-N-(pyridin-2-yl)benzamide Hydrochloride] has a pIC50 of over 7.00. `O=C(Nc1ccccn1)c1ccc(CN2C(=O)c3ccc(Cl)cc3NC(=O)[C@H]2Cc2ccncc2)cc1` [Example 4u, (R)-4-((8-chloro-2,5-dioxo-3-(pyridin-4-ylmethyl)-2,3-dihydro-1H-benzo[e][1,4]diazepin-4(5H)-yl)methyl)-N-(pyridin-2-yl)benzamide] gave a pIC50 of 6.00 to 7.00. With `O=C(Nc1ccccn1)c1ccc(CN2C(=O)c3ccc(Cl)cc3NC(=O)[C@H]2Cc2ccccc2F)cc1` [Example 4an, (R)-4-((8-chloro-3-(2-fluorobenzyl)-2,5-dioxo-2,3-dihydro-1H-benzo[e][1,4]diazepin-4(5H)-yl)methyl)-N-(pyridin-2-yl)benzamide] the pIC50 was over 7.00. Molecule `O=C(Nc1ccccn1)c1ccc(CN2Cc3ccc(Cl)cc3NC(=O)[C@H]2Cc2ccccn2)cc1` [Example 20a, (R)-4-((8-Chloro-2-oxo-3-(pyridin-2-ylmethyl)-2,3-dihydro-1H-benzo[e][1,4]diazepin-4(5H)-yl)methyl)-N-(pyridin-2-yl)benzamide] has a pIC50 of 5.00 to 6.00. Molecule `O=C(Nc1ccccn1)c1ccc(CN2C(=O)c3ccccc3NC(=O)[C@H]2Cc2cccnc2)cc1` [Example 35g] has a pIC50 of 6.00 to 7.00. `Cc1cnc(NC(=O)c2ccc(CN3C(=O)c4ccc(Cl)cc4NC(=O)[C@H]3Cc3ccccn3)cc2)nc1` [Example 5l, (R)-4-((8-chloro-2,5-dioxo-3-(pyridin-2-ylmethyl)-2,3-dihydro-1H-benzo[e][1,4]diazepin-4(5H)-yl)methyl)-N-(5-methylpyrimidin-2-yl)benzamide] showed a pIC50 of over 7.00. In the case of `O=C(Nc1ccc(C(F)(F)F)cn1)c1ccc(CN2C(=O)c3ccc(Cl)cc3NC(=O)[C@H]2Cc2ccccn2)cc1` [Example 5q, (R)-4-((8-chloro-2,5-dioxo-3-(pyridin-2-ylmethyl)-2,3-dihydro-1H-benzo[e][1,4]diazepin-4(5H)-yl)methyl)-N-(5-(trifluoromethyl)pyridin-2-yl)benzamide], the pIC50 was over 7.00. `O=C1Nc2cc(Cl)ccc2C(=O)N(C[C@H]2CC[C@H](C(=O)N3CCCc4cccnc43)CC2)[C@@H]1Cc1ccccn1` [Example 4ch, (R)-8-chloro-3-(pyridin-2-ylmethyl)-4-(((1r,4R)-4-(1,2,3,4-tetrahydro-1,8-naphthyridine-1-carbonyl)cyclohexyl)methyl)-3,4-dihydro-1H-benzo[e][1,4]diazepine-2,5-dione] gave a pIC50 of 4.46 to 5.00. `O=C(Nc1cc(CN2C(=O)c3ccc(Cl)cc3NC(=O)[C@H]2Cc2ccccn2)ccc1C(=O)O)c1ccncc1` [Example 22f] gave a pIC50 of 5.00 to 6.00. With `O=C(Nc1ccccn1)c1ccc(CN2C(=O)c3ccc(Cl)cc3NC(=O)[C@H]2Cc2ccccn2)cc1` [Example 4v, (R)-4-((8-chloro-2,5-dioxo-3-(pyridin-2-ylmethyl)-2,3-dihydro-1H-benzo[e][1,4]diazepin-4(5H)-yl)methyl)-N-(pyridin-2-yl)benzamide] the pIC50 was over 7.00. `O=C(Nc1ccc(F)cn1)c1ccc(CN2C(=O)c3ccc(Cl)cc3NC(=O)[C@H]2Cc2ccccn2)cc1Cl` [Example 5ao, (R)-2-chloro-4-((8-chloro-2,5-dioxo-3-(pyridin-2-ylmethyl)-2,3-dihydro-1H-benzo[e][1,4]diazepin-4(5H)-yl)methyl)-N-(5-fluoropyridin-2-yl)benzamide] showed a pIC50 of over 7.00. Work on `Cc1nnc(NC(=O)c2ccc(CN3C(=O)c4ccc(Cl)cc4NC(=O)[C@H]3Cc3ccccn3)cc2)[nH]1` [Example 4bj, (R)-4-((8-chloro-2,5-dioxo-3-(pyridin-2-ylmethyl)-2,3-dihydro-1H-benzo[e][1,4]diazepin-4(5H)-yl)methyl)-N-(5-methyl-4H-1,2,4-triazol-3-yl)benzamide] yielded a pIC50 of 5.00 to 6.00. With `O=C(Nc1ccccn1)c1ccc(CN2C(=O)c3ccc(Cl)cc3NC(=O)C2CC2CCOCC2)cc1` (stereo not drawn) [Example 35e] the pIC50 was 5.00 to 6.00. For `Cc1ccnc(C(=O)Nc2ccc(CN3C(=O)c4ccc(Cl)cc4NC(=O)[C@H]3Cc3ccccn3)cc2)c1` [Example 26c], the pIC50 was over 7.00. `CN(C)C(=O)c1ccc(CN2C(=O)c3ccc(Cl)cc3NC(=O)[C@H]2Cc2cccnc2)cc1` [Example 13b, (R)-4-((8-chloro-2,5-dioxo-3-(pyridin-3-ylmethyl)-2,3-dihydro-1H-benzo[e][1,4]diazepin-4(5H)-yl)methyl)-N,N-dimethylbenzamide] showed a pIC50 of 4.46 to 5.00. `C[C@H]1C(=O)Nc2cc(Cl)ccc2C(=O)N1Cc1ccc(C(=O)O)cc1` [Example 3b] was tested, and the pIC50 was 4.46 to 5.00. `O=C(Nc1ccccn1)c1cccc(S(=O)(=O)N2Cc3ccc(Cl)cc3NC(=O)[C@H]2Cc2ccccn2)c1` [Example 19j, (R)-3-((8-chloro-2-oxo-3-(pyridin-2-ylmethyl)-2,3-dihydro-1H-benzo[e][1,4]diazepin-4(5H)-yl)sulfonyl)-N-(pyridin-2-yl)benzamide] showed a pIC50 of 4.46 to 5.00. Molecule `O=C(Nc1ccc(CN2C(=O)c3ccc(Cl)cc3NC(=O)[C@H]2Cc2ccccn2)cc1)c1cccnc1O` [Example 27a, (R)—N-(4-((8-Chloro-2,5-dioxo-3-(pyridin-2-ylmethyl)-2,3-dihydro-1H-benzo[e][1,4]diazepin-4(5H)-yl)methyl)phenyl)-2-hydroxynicotinamide] has a pIC50 of 5.00 to 6.00. Molecule `O=C(O)c1ccc(CN2C(=O)c3ccc(Cl)cc3NC(=O)[C@H]2Cc2ccccn2)cc1Cl` [Example 7a, (R)-2-Chloro-4-((8-chloro-2,5-dioxo-3-(pyridin-2-ylmethyl)-2,3-dihydro-1H-benzo[e][1,4]diazepin-4(5H)-yl)methyl)benzoic Acid] has a pIC50 of 6.00 to 7.00. Work on `O=C(CN1CCCC1)Nc1cc(CN2C(=O)c3ccc(Cl)cc3NC(=O)[C@H]2Cc2ccccn2)ccc1C(=O)O` [Example 22n] yielded a pIC50 of 6.00 to 7.00. For `CN1CCN(c2ccc(NC(=O)c3ccc(CN4C(=O)c5ccc(Cl)cc5NC(=O)[C@H]4Cc4ccccn4)cc3)nc2)CC1` [Example 4ax, (R)-4-((8-chloro-2,5-dioxo-3-(pyridin-2-ylmethyl)-2,3-dihydro-1H-benzo[e][1,4]diazepin-4(5H)-yl)methyl)-N-(5-(4-methylpiperazin-1-yl)pyridin-2-yl)benzamide], the pIC50 was over 7.00. Molecule `COCC(=O)Nc1cccc(CN2C(=O)c3ccc(Cl)cc3NC(=O)[C@H]2Cc2ccccn2)c1` [Example 28b] has a pIC50 of 5.00 to 6.00. `O=C(CO)Nc1cc(CN2C(=O)c3ccc(Cl)cc3NC(=O)[C@H]2Cc2ccccn2)ccc1C(=O)O` [Example 22o] showed a pIC50 of 6.00 to 7.00. For `COc1ccc(NC(=O)c2ccc(CN3C(=O)c4ccc(Cl)cc4NC(=O)C3Cc3cnccn3)cc2)nc1` (stereo not drawn) [Example 5w, 4-((8-chloro-2,5-dioxo-3-(pyrazin-2-ylmethyl)-2,3-dihydro-1H-benzo[e][1,4]diazepin-4(5H)-yl)methyl)-N-(5-methoxypyridin-2-yl)benzamide], the pIC50 was over 7.00. For `CC(=O)Nc1cc(CN2C(=O)c3ccc(Cl)cc3NC(=O)[C@H]2Cc2ccccn2)ccc1C(=O)O` [Example 22a, (R)-2-Acetamido-4-((8-chloro-2,5-dioxo-3-(pyridin-2-ylmethyl)-2,3-dihydro-1H-benzo[e][1,4]diazepin-4(5H)-yl)methyl)benzoic Acid], the pIC50 was 6.00 to 7.00. Work on `O=C(O)c1ccc(CN2C(=O)c3ccc(Cl)cc3NC(=O)[C@H]2Cc2ccccn2)cc1` [Example 1a, (R)-4-((8-Chloro-2,5-dioxo-3-(pyridin-2-ylmethyl)-2,3-dihydro-1H-benzo[e][1,4]diazepin-4(5H)-yl)methyl)benzoic Acid] yielded a pIC50 of 6.00 to 7.00.

Same assay, conditions: read-out: TcdB UDP-Glucose hydrolysis activity (IC50, coded); UDP-Glucose hydrolysis assay, fluorescence polarization
`COc1ccc(NC(=O)C2CCC(CN3C(=O)c4ccc(Cl)cc4NC(=O)[C@H]3Cc3ccccn3)CC2)nc1` (stereo partly drawn) [Example 4bz, (1R,4r)-4-(((R)-8-chloro-2,5-dioxo-3-(pyridin-2-ylmethyl)-2,3-dihydro-1H-benzo[e][1,4]diazepin-4(5H)-yl)methyl)-N-(5-methoxypyridin-2-yl)cyclohexanecarboxamide] showed a pIC50 of over 7.00.
